Reference: patent US20110165115A1, “SYNERGISTIC ATTRACTANTS FOR PESTIFEROUS SOCIAL INSECTS” (STERLING INTERNATIONAL INC., priority 2010, published 2011)

What was measured:
[1] = test system: Myrmeleon crudelis antennae; assay: GC-EAD of synthetic HIPVs on beneficial insect antennae; settings: FIG. 6
Method: (§1) Aeration samples of the cherry branches (damaged or undamaged/slightly damaged) were injected (3 μl) splitless into a Varian CP-3800 GC equipped with a polar column (HP-INNOWax; 30 m×0.53 mm×1.0 μm film thickness; Agilent Technologies, Wilmington, Del., USA) and a 1:1 effluent splitter that allowed simultaneous flame ionization detection (FID) and electroantennographic detection (EAD) of the European paper wasp (Polistes dominulus) worker antennae to the separated volatile compounds. Helium was used as the carrier gas, and the injector and detector temperatures were 250° C. and 300° C., respectively. Column temperature was 50° C. for 1 min, rising to 240° C. at 10° C./min, and then held for 10 min. The outlet for the EAD was held in a humidified air stream flowing at 0.5 m/sec over the antennal preparation. EAD recordings were made using silver wire-glass capillary electrodes filled with Beadle-Ephrussi Ringer on freshly cut antennae. The antennal signals were stored and analyzed on a PC equipped with a serial IDAC interface box and the program EAD ver. 2.5 (Syntech, Hilversum, The Netherlands). In addition, GC-EAD responses to a synthetic mixture (100 ng/μl each) containing nine known HIPVs including cis-3-hexen-1-ol, cis-3-hexenyl acetate, trans-β-ocimene, (E)-4,8-dimethyl-1,3,7-nonatriene, linalool, methyl salicylate, geranyl acetate, trans-β-caryophyllene and trans-β-farnesene were tested on the P. dominulus workers. (See FIG. 2.) The same chemicals were also tested on beneficial insect antennae from Chrysopa oculata, Myrmeleon crudelis, Podisus maculiventris, and Hippodarnia convergens. (See FIG. 6.) Antennally active peaks in the aeration samples were identified by GC-MS on an HP 6890 GC series coupled with an HP 5973 Mass Selective Detector using the same type of GC column and conditions as described above. Compounds were identified by comparison of retention times with those of authentic standards and with mass spectra of standards.

[2] = test system: Podisus maculiventris antennae; assay: as above; settings: FIG. 6
Method: as §1

[3] = test system: Chrysopa oculata antennae; assay: as above; settings: FIG. 6
Method: as §1

[4] = test system: Hippodarnia convergens antennae; assay: as above; settings: FIG. 6
Method: as §1

[5] = test system: P. dominulus workers antennae; assay: GC-EAD of synthetic mixture of known HIPVs; set-up: species or system Polistes dominulus; settings: 100 ng/μl each in hexane
Method: as §1

[6] = test system: Polistes dominulus worker antennae; assay: GC-EAD of cherry branch aeration samples
Method: Lapin cherry branches with severely damaged cherries and leaves and undamaged or slightly damaged branches were collected from a cherry orchard at Creston, Canada, on Jul. 29, 2009, and were transported to the Sterling International, Inc. lab (Spokane, Wash.) on the same day and kept at 4° C. before aerations. Headspace volatiles from the cherry branches (damaged or undamaged) were sampled by a battery operated pump and a high density polyacetate oven bag (48.2×59.6 cm Reynolds® Oven Bag; Richmond, Va., USA) enclosure with one activated charcoal filter tube in the air inlet, on Jul. 30, 2009. The volatiles in the enclosure were trapped on one Porapak Q tube (50/80 mesh; 30 mg in Teflon tube: 3 mm×35 mm) for 2.5 hr (airflow 300 ml/min) and extracted with 1 ml redistilled pentane. Aeration samples of the cherry branches (damaged or undamaged/slightly damaged) were injected (3 μl) splitless into a Varian CP-3800 GC equipped with a polar column (HP-INNOWax; 30 m×0.53 mm×1.0 μm film thickness; […] Helium was used as the carrier gas, and the injector and detector temperatures were 250° C. and 300° C., respectively. Column temperature was 50° C. for 1 min, rising to 240° C. at 10° C./min, and then held for 10 min. The outlet for the EAD was held in a humidified air stream flowing at 0.5 m/sec over the antennal preparation. EAD recordings were made using silver wire-glass capillary electrodes filled with Beadle-Ephrussi Ringer on freshly cut antennae. The antennal signals were stored and analyzed on a PC equipped with a serial IDAC interface box and the program EAD ver. 2.5 (Syntech, Hilversum, The Netherlands). […] (See FIG. 2.) The same chemicals were also tested on beneficial insect antennae from Chrysopa oculata, Myrmeleon crudelis, Podisus maculiventris, and Hippodarnia convergens. (See […] active peaks in the aeration samples were identified by GC-MS on an HP 6890 GC series coupled with an HP 5973 Mass Selective Detector using the same type of GC column and conditions as described above. Compounds were identified by comparison of retention times with those of authentic standards and with mass spectra of standards.

[7] = test system: P. aurifer; assay: Field trapping Experiment 1, Rescue W•H•Y traps; format: in vivo, Polistes aurifer; settings: Exp 1; HIPV added to WHY attractant in the top chamber, or WHY alone
Method: Three field trapping experiments were carried out during late July to early August 2009, in residential and woody areas around Spokane, Wash., USA, using the newly marketed Rescue® W•H•Y traps (www.rescue.com). As used herein, the W•H•Y trap is a trap in accordance with the description of United States Patent Application Publication No. 2009/0151228. The W•H•Y trap has a top chamber and a bottom chamber. The top chamber is baited with two attractants—one of which is a solid contained in a vial (2-methyl-1-butanol) and the other a liquid mixed with water (acetic acid), herein referred to as the W•H•Y top attractant. The bottom chamber is baited with a liquid attractant (heptyl butyrate) poured onto a cotton pad, herein referred to as the W•H•Y bottom attractant. Separation of the top and bottom attractants (otherwise antagonistic to each other when released from the same chamber) in two chambers was a design feature of this trap and creates two focal attraction sources from one trap for different species of wasps, hornets, and yellowjackets. Traps were hung 1.5-2.0 m above the ground on either the fence or tree branches ca. 5 m apart within each trap line. For each trapping experiment, six sets of traps were deployed with their initial trap positions within each set being randomized. To minimize positional effects and obtain more replications, wasp collections and trap re-randomization were carried out when ≧10-20 wasps were caught in the best trap. Each replicate lasted several days depending on wasp flight activity. Captured wasps were removed from the traps and kept in the zip-bags before taking back to the laboratory for recording of the species, gender status, and catch.
Experiment 3 (Aug. 5-13, 2009) was conducted to determine the potential behavioral activity of different doses of (E)-4,8-dimethyl-1,3,7-nonatriene alone. The individual (or different doses) HIPVs were loaded into either polyethylene bags or centrifuge tube type of dispensers, and released from the top of the W•H•Y trap chamber. W•H•Y trap attractants (both top and bottom or top only) alone and water (top chamber only) were included in the test as positive and blank controls, respectively. The dispenser types, loading and release rates of the tested semiochemicals are described in Tables 1, 2 and 3.
Trap catch data were converted to proportion (P) of total captured wasps within each replicate. Data were then transformed by arcsin√P to meet the assumptions of normality and homogeneity of variances for ANOVA. Means were compared by ANOVA followed by the Ryan-Einot-Gabriel-Welsh (REGW) multiple Q test (SPSS 16.0 for Windows) at α=0.05.

[8] = test system: V. atropilosa; format: in vivo, Vespula atropilosa; settings: Exp 1; HIPV added to WHY attractant in the top chamber, or WHY alone
[9] = aeration of severely damaged cherry branches, at current release rates
[10] = aeration of undamaged or slightly damaged cherry branches

| Compound | EAD-response [1] | EAD-response [2] | EAD-response [3] | EAD-response [4] | EAD response of worker antennae [5] | EAD response of worker antennae [6, 9] | EAD response of worker antennae [6, 10] | Total Paper Wasps P. aurifer [7] | Total Yellowjacket Catches V. atropilosa [8] |
| --- | --- | --- | --- | --- | --- | --- | --- | --- | --- |
| CC/C=C\CCOC(C)=O [Z-3-Hexenyl Acetate, (Z)-3-hexenyl acetate] | strong EAD-responses | strong EAD-responses | strong EAD-responses | strong EAD-responses | responded consistently | did not elicit significant EAD-responses | strongly responded | 9 | 0 |
| C=C/C=C(\C)CCC=C(C)C [(E)-4,8-dimethyl-1,3,7-nonatriene] | strong EAD-responses | strong EAD-responses | strong EAD-responses | strong EAD-responses | responded consistently | significant EAD response | – | 12 | 3 |
| COC(=O)c1ccccc1O [Methyl Salicylate, methyl salicylate] | strong EAD-responses | strong EAD-responses | strong EAD-responses | strong EAD-responses | responded consistently | did not elicit significant EAD-responses | – | 6 | 4 |
| CC/C=C\CCO [Z-3-Hexanol, (Z)-3-hexen-1-ol] | – | – | – | – | responded consistently | did not elicit significant EAD-responses | strongly responded | 4 | 0 |
